In brackets after ≈: the same amount, converted by molar mass.
Key:
[1] = tested on: Escherichia coli; assay: Antibacterial activity against Escherichia coli DC0; type: functional, organism-based
[2] = tested on: Escherichia coli; assay: Antibacterial activity against Escherichia coli DC2 permeability mutant; type: functional
[3] = tested on: Enterobacter cloacae; assay: Antibacterial activity against Enterobacter cloacae P99; type: functional
[4] = tested on: Micrococcus luteus; assay: Antibacterial activity against Micrococcus luteus ATCC 10240; type: functional
[5] = tested on: Pseudomonas aeruginosa; assay: Antibacterial activity against Pseudomonas aeruginosa KW 799; type: functional
[6] = tested on: Pseudomonas aeruginosa; assay: Antibacterial activity against Pseudomonas aeruginosa KW 799/ 61 permeability mutant; type: functional
[7] = tested on: Mycolicibacterium vaccae; assay: Antibacterial activity against Mycobacterium vaccae IMET10670; type: functional
[8] = tested on: Mycolicibacterium smegmatis; assay: Antibacterial activity against Mycobacterium smegmatis SG987; type: functional
[9] = tested on: Mycolicibacterium aurum; assay: Antibacterial activity against Mycobacterium aurum SB66; type: functional
[10] = tested on: Mycolicibacterium aurum; assay: Antibacterial activity against Mycobacterium aurum DSM 43436; type: functional
[11] = tested on: Mycolicibacterium fortuitum; assay: Antibacterial activity against Mycobacterium fortuitum B; type: functional
[12] = tested on: Staphylococcus aureus; assay: Antibacterial activity against Staphylococcus aureus SG 511; type: functional
[13] = tested on: Staphylococcus aureus; assay: Antibacterial activity against Staphylococcus aureus 134/93 MRSA; type: functional
[14] = tested on: Enterococcus faecalis; assay: Antibacterial activity against Enterococcus faecalis 1528 VRE; type: functional
[15] = tested on: Mycobacterium tuberculosis; assay: Antibacterial activity against Mycobacterium tuberculosis H37Rv by microplate alamar blue assay; type: functional
[16] = tested on: Vero; assay: Cytotoxicity against Vero cells; type: cell-based; conditions: Chlorocebus sabaeus

Row | Structure (SMILES) | MIC [1] [µM] | MIC [2] [µM] | MIC [3] [µM] | MIC [4] [µM] | MIC [5] [µM] | MIC [6] [µM] | MIC [7] [µM] | MIC [8] [µM] | MIC [9] [µM] | MIC [10] [µM] | MIC [11] [µM] | MIC [12] [µM] | MIC [13] [µM] | MIC [14] [µM] | MIC [15] [µM] | IC50 [16] [µM] | IC50 [1] [µM]
1 | O=C(Cc1ccccc1)N[C@@H]1C(=O)N2C(C(=O)O)=C(CN3CCN(c4cc5c(cc4F)c(=O)c(C(=O)O)cn5C4CC4)CC3)CS[C@H]12 | 3.12 (≈ 2.06 µg/mL) | 0.8 (≈ 0.529 µg/mL) | 0.1 (≈ 0.0662 µg/mL) | 0.4 (≈ 0.265 µg/mL) | 1.56 (≈ 1.03 µg/mL) | 1.56 (≈ 1.03 µg/mL) | 3.12 (≈ 2.06 µg/mL) | 3.12 (≈ 2.06 µg/mL) | 0.4 (≈ 0.265 µg/mL) | 0.4 (≈ 0.265 µg/mL) | 3.12 (≈ 2.06 µg/mL) | 1.56 (≈ 1.03 µg/mL) | 200 (≈ 132 µg/mL) | 12.5 (≈ 8.27 µg/mL) | 3.8 (≈ 2.51 µg/mL) | > 128 | –
2 | COc1ccc(COC(=O)C2=C(CI)CS[C@@H]3[C@H](NC(=O)Cc4ccccc4)C(=O)N23)cc1 | 200 (≈ 116 µg/mL) | 200 (≈ 116 µg/mL) | 100 (≈ 57.8 µg/mL) | 100 (≈ 57.8 µg/mL) | 100 (≈ 57.8 µg/mL) | 100 (≈ 57.8 µg/mL) | 100 (≈ 57.8 µg/mL) | > 200 | 100 (≈ 57.8 µg/mL) | 50 (≈ 28.9 µg/mL) | 200 (≈ 116 µg/mL) | 6.25 (≈ 3.62 µg/mL) | > 200 | 200 (≈ 116 µg/mL) | > 128 | – | –
3 | COc1ccc(COC(=O)C2=C(CCl)CS[C@@H]3[C@H](NC(=O)Cc4ccccc4)C(=O)N23)cc1 | 200 (≈ 97.4 µg/mL) | – | – | 50 (≈ 24.3 µg/mL) | 100 (≈ 48.7 µg/mL) | 50 (≈ 24.3 µg/mL) | 100 (≈ 48.7 µg/mL) | – | – | – | 100 (≈ 48.7 µg/mL) | 1.56 (≈ 0.76 µg/mL) | – | – | 31.5 (≈ 15.3 µg/mL) | – | –
4 | O=C(Cc1ccccc1)N[C@@H]1C(=O)N2C(C(=O)OC(c3ccccc3)c3ccccc3)=C(COC(=O)N3CCN(c4cc5c(cc4F)c(=O)c(C(=O)O)cn5C4CC4)CC3)CS[C@H]12 | – | 0.2 (≈ 0.174 µg/mL) | < 0.1 | 12.5 (≈ 10.9 µg/mL) | 1.56 (≈ 1.36 µg/mL) | 1.56 (≈ 1.36 µg/mL) | 1.56 (≈ 1.36 µg/mL) | 1.56 (≈ 1.36 µg/mL) | 0.2 (≈ 0.174 µg/mL) | 0.2 (≈ 0.174 µg/mL) | 0.8 (≈ 0.698 µg/mL) | 0.2 (≈ 0.174 µg/mL) | 100 (≈ 87.2 µg/mL) | 3.12 (≈ 2.72 µg/mL) | 8 (≈ 6.98 µg/mL) | > 128 | 1.56
5 | O=C(Cc1ccccc1)N[C@@H]1C(=O)N2C(C(=O)O)=C(COC(=O)N3CCN(c4cc5c(cc4F)c(=O)c(C(=O)O)cn5C4CC4)CC3)CS[C@H]12 | 3.12 (≈ 2.2 µg/mL) | 0.8 (≈ 0.565 µg/mL) | 0.2 (≈ 0.141 µg/mL) | 0.2 (≈ 0.141 µg/mL) | 3.12 (≈ 2.2 µg/mL) | 3.12 (≈ 2.2 µg/mL) | 1.56 (≈ 1.1 µg/mL) | 3.12 (≈ 2.2 µg/mL) | 0.2 (≈ 0.141 µg/mL) | 0.2 (≈ 0.141 µg/mL) | 0.8 (≈ 0.565 µg/mL) | 0.4 (≈ 0.282 µg/mL) | 200 (≈ 141 µg/mL) | 6.25 (≈ 4.41 µg/mL) | 1.6 (≈ 1.13 µg/mL) | > 128 | –
6 | COc1ccc(COC(=O)C2=C(CN3CCN(c4cc5c(cc4F)c(=O)c(C(=O)O)cn5C4CC4)CC3)CS[C@@H]3[C@H](NC(=O)Cc4ccccc4)C(=O)N23)cc1 | 25 (≈ 19.5 µg/mL) | 6.25 (≈ 4.89 µg/mL) | 0.4 (≈ 0.313 µg/mL) | 3.12 (≈ 2.44 µg/mL) | 12.5 (≈ 9.77 µg/mL) | 12.5 (≈ 9.77 µg/mL) | 3.12 (≈ 2.44 µg/mL) | 12.5 (≈ 9.77 µg/mL) | 0.8 (≈ 0.625 µg/mL) | 1.56 (≈ 1.22 µg/mL) | 12.5 (≈ 9.77 µg/mL) | 1.56 (≈ 1.22 µg/mL) | > 200 | 50 (≈ 39.1 µg/mL) | 62.3 (≈ 48.7 µg/mL) | 13.1 | –
7 | O=C(Cc1ccccc1)N[C@@H]1C(=O)N2C(C(=O)OC(c3ccccc3)c3ccccc3)=C(CO)CS[C@H]12 | > 200 | 200 (≈ 103 µg/mL) | 200 (≈ 103 µg/mL) | 25 (≈ 12.9 µg/mL) | 100 (≈ 51.5 µg/mL) | 100 (≈ 51.5 µg/mL) | 200 (≈ 103 µg/mL) | 200 (≈ 103 µg/mL) | 50 (≈ 25.7 µg/mL) | 25 (≈ 12.9 µg/mL) | 200 (≈ 103 µg/mL) | 3.12 (≈ 1.61 µg/mL) | > 200 | 200 (≈ 103 µg/mL) | > 128 | – | –
8 | O=C(O)c1cn(C2CC2)c2cc(N3CCNCC3)c(F)cc2c1=O [CIPROFLOXACIN] | 0.4 (≈ 0.133 µg/mL) | < 0.1 | – | 25 (≈ 8.28 µg/mL) | 0.8 (≈ 0.265 µg/mL) | 0.4 (≈ 0.133 µg/mL) | 0.8 (≈ 0.265 µg/mL) | 0.8 (≈ 0.265 µg/mL) | 0.1 (≈ 0.0331 µg/mL) | 0.1 (≈ 0.0331 µg/mL) | 0.2 (≈ 0.0663 µg/mL) | 0.8 (≈ 0.265 µg/mL) | 50 (≈ 16.6 µg/mL) | 1.56 (≈ 0.517 µg/mL) | 1.8 (≈ 0.596 µg/mL) | – | –

Reference: ChEMBL document CHEMBL1139710, “Syntheses and studies of quinolone-cephalosporins as potential anti-tuberculosis agents” (Bioorg Med Chem Lett, 2006)
